Results: the CheMixHub drug solubility set

Assay: xn = mol fraction of the nth substance listed, in the solute-free solvent

CC(C)C(=O)Nc1ccc([N+](=O)[O-])c(C(F)(F)F)c1 + CCOC(C)=O + CC(C)O
solubility (g/100 g solution)
Settings	278.15 K	283.15 K	288.15 K	293.15 K	298.15 K	303.15 K	308.15 K	313.15 K	318.15 K	323.15 K
x2 = 0.1	19.4	22.7	26.3	30.2	33.9	38.7	43.5	48.3	53	57.4
x2 = 0.2	28.6	30.8	33.4	36.8	40.7	44.4	48.2	51.8	55.6	59.2
x2 = 0.3	30.6	34.2	38	41.5	44.9	48.2	51.3	54.9	58.2	61.5
x2 = 0.4	32.7	36.3	39.5	42.8	45.9	49	52.5	55.8	58.7	61.9
x2 = 0.5	33.7	37.2	40.7	44	46.9	49.8	52.9	56.1	59.3	62.1
x2 = 0.6	34.3	38	41.5	44.7	47.6	50.4	53.3	56.4	59.4	62.5
x2 = 0.7	34.5	37.8	41	44.3	47.4	50.3	53.4	56.4	59.4	62.4
x2 = 0.8	34.2	37.7	41.3	44.7	47.8	50.9	53.6	56.7	59.8	62.9
x2 = 0.9	34.4	37.9	41.5	44.8	47.8	51.1	53.9	56.6	59.5	62.6

Nc1cccc2c1CN(C1CCC(=O)NC1=O)C2=O (stereo unspecified) + CO + CCOC(C)=O
solubility (g/100 g solution)
Settings	273.15 K	278.15 K	283.15 K	288.15 K	293.15 K	298.15 K	303.15 K	308.15 K	313.15 K	318.15 K
x2 = 0.4074	0.261	0.29	0.318	0.352	0.389	0.429	0.475	0.525	0.581	0.642
x2 = 0.647	0.353	0.398	0.443	0.489	0.536	0.592	0.648	0.714	0.786	0.863
x2 = 0.8048	0.354	0.393	0.437	0.491	0.546	0.608	0.679	0.76	0.852	0.952
x2 = 0.9166	0.352	0.385	0.426	0.481	0.536	0.599	0.67	0.755	0.854	0.959

COC(=O)Nc1nc2ccccc2[nH]1 + CCCO + O
solubility (g/100 g solution)
Settings	278.15 K	283.15 K	288.15 K	293.15 K	298.15 K	303.15 K	308.15 K	313.15 K	318.15 K
x2 = 0.03228	0.000759	0.000937	0.00117	0.00145	0.00179	0.00212	0.00255	0.00307	0.00365
x2 = 0.06986	0.00122	0.00153	0.00195	0.00246	0.00308	0.00372	0.00456	0.00552	0.00671
x2 = 0.1138	0.00157	0.00198	0.00262	0.00333	0.00428	0.00526	0.0066	0.00814	0.01
x2 = 0.1665	0.0017	0.00223	0.00302	0.00394	0.00516	0.00653	0.00832	0.0105	0.0132
x2 = 0.2308	0.0017	0.00229	0.00318	0.00426	0.0057	0.00739	0.00966	0.0124	0.016
x2 = 0.3105	0.00161	0.00218	0.0032	0.00441	0.00599	0.00796	0.0107	0.0141	0.0185
x2 = 0.4108	0.00149	0.0021	0.00313	0.00441	0.00614	0.00837	0.0115	0.0155	0.0208
x2 = 0.5455	0.00136	0.00196	0.00302	0.00436	0.00622	0.0087	0.0123	0.0169	0.0232
x2 = 0.7314	0.00123	0.00179	0.00287	0.00425	0.00617	0.00889	0.0128	0.0181	0.0254

Cl.NC1CCSC1=O (stereo unspecified) + CO + CC#N
solubility (g/100 g solution)
Settings	x2 = 0.1	x2 = 0.2	x2 = 0.3	x2 = 0.4	x2 = 0.5	x2 = 0.6	x2 = 0.7	x2 = 0.8	x2 = 0.9
283.15 K	0.153	0.482	1.04	1.98	3.18	4.35	4.99	5.63	6.22
293.15 K	0.155	0.525	1.13	2.12	3.55	4.89	6.04	6.92	7.84
303.15 K	0.17	0.539	1.22	2.35	3.91	5.55	6.97	8.29	9.23
313.15 K	0.177	0.556	1.32	2.56	4.25	6.26	7.78	9.55	10.7
323.15 K	0.194	0.6	1.46	2.83	4.71	7.06	8.51	10.9	12.3

CC(C)C(=O)Nc1ccc([N+](=O)[O-])c(C(F)(F)F)c1 + CC(C)O + O
solubility (g/100 g solution)
Settings	278.15 K	283.15 K	288.15 K	293.15 K	298.15 K	303.15 K	308.15 K	313.15 K	318.15 K	323.15 K
x2 = 0.03225	0.00411	0.00535	0.00694	0.00908	0.0116	0.0149	0.0187	0.0236	0.0297	0.0366
x2 = 0.06974	0.0295	0.0376	0.0488	0.0614	0.0768	0.0971	0.121	0.15	0.185	0.226
x2 = 0.1139	0.145	0.182	0.228	0.279	0.342	0.415	0.505	0.598	0.707	0.853
x2 = 0.1666	0.533	0.638	0.775	0.929	1.12	1.32	1.54	1.82	2.11	2.46
x2 = 0.2307	1.53	1.83	2.16	2.51	2.97	3.45	3.99	4.54	5.22	5.9
x2 = 0.3103	3.62	4.25	5	5.84	6.78	7.81	9.03	10.4	11.7	13.3
x2 = 0.4117	6.94	8.23	9.52	11.1	12.8	14.6	16.6	18.9	21.3	23.8
x2 = 0.5454	11.6	13.6	15.6	17.6	20.1	22.3	25	28.1	30.8	33.6
x2 = 0.7297	16.9	19.1	21.6	24.2	27.3	30.4	33	36.1	39.4	42.8

Cc1ccc(-c2cc(C(F)(F)F)nn2-c2ccc(S(N)(=O)=O)cc2)cc1 + CN1CCCC1=O + CCO
solubility (g/100 g solution)
Settings	x2 = 0.0491	x2 = 0.1041	x2 = 0.1661	x2 = 0.2365	x2 = 0.3173	x2 = 0.4108	x2 = 0.5202	x2 = 0.6502	x2 = 0.8071
293.15 K	8.15	8.62	9.04	9.29	9.69	10.4	12.6	14.8	17.6
298.15 K	8.96	9.87	10.4	10.9	11.4	12.6	14.7	16.8	19.6
303.15 K	10.2	10.9	11.3	12.3	12.9	14.4	16.7	18.8	22
308.15 K	11.1	11.8	12.6	13.8	14.3	16.4	18.8	20.9	23.9
313.15 K	12.1	12.7	13.9	15.2	15.9	19	21.3	23.5	25.9
